Experimental data from the CheMixHub viscosity set.

Assay: xn = mol fraction of the nth substance listed

CC(CC(C)(C)C)CP(=O)(O)CC(C)CC(C)(C)C (centres undefined) + C1CCCCC1
298.15 K, 101 kPa
Conditions | viscosity [mPa·s]
x1 = 0.007 | 0.95
x1 = 0.0117 | 0.998
x1 = 0.015 | 1.052
x2 = 0.1098 | 97.92
x2 = 0.1822 | 85
x2 = 0.3325 | 59.34
x2 = 0.505 | 32.7
x2 = 0.6519 | 16.56
x2 = 0.7568 | 8.757
x2 = 0.7617 | 8.623
x2 = 0.851 | 4.302
x2 = 0.8636 | 3.779
x2 = 0.8895 | 3.032
x2 = 0.9226 | 2.188
x2 = 0.9255 | 2.102
x2 = 0.9573 | 1.489
x2 = 0.9686 | 1.301

CCOCCO + C1CCCCC1
viscosity [mPa·s]
Conditions | 298.15 K | 303.15 K | 308.15 K | 313.15 K
101 kPa, x1 = 0.0542 | 0.903 | – | 0.755 | –
101 kPa, x1 = 0.1507 | 0.92 | – | 0.775 | –
101 kPa, x1 = 0.2541 | 0.952 | – | 0.805 | –
101 kPa, x1 = 0.3508 | 0.996 | – | 0.841 | –
101 kPa, x1 = 0.452 | 1.057 | – | 0.888 | –
101 kPa, x1 = 0.5 | 1.093 | – | 0.915 | –
101 kPa, x1 = 0.5497 | 1.135 | – | 0.945 | –
101 kPa, x1 = 0.6534 | 1.24 | – | 1.019 | –
101 kPa, x1 = 0.7527 | 1.368 | – | 1.105 | –
101 kPa, x1 = 0.8492 | 1.524 | – | 1.206 | –
101 kPa, x1 = 0.9552 | 1.741 | – | 1.341 | –
101.33 kPa, x1 = 0.0993 | 0.864 | 0.787 | 0.724 | 0.663
101.33 kPa, x1 = 0.2013 | 0.91 | 0.827 | 0.755 | 0.696
101.33 kPa, x1 = 0.2968 | 0.961 | 0.875 | 0.798 | 0.731
101.33 kPa, x1 = 0.4007 | 1.035 | 0.938 | 0.852 | 0.786
101.33 kPa, x1 = 0.495 | 1.112 | 1.004 | 0.884 | 0.837
101.33 kPa, x1 = 0.5998 | 1.211 | 1.093 | 0.992 | 0.899
101.33 kPa, x1 = 0.6974 | 1.341 | 1.2 | 1.085 | 0.977
101.33 kPa, x1 = 0.808 | 1.496 | 1.341 | 1.206 | 1.094
101.33 kPa, x1 = 0.9006 | 1.714 | 1.527 | 1.371 | 1.231

CCOCCO + C1CCOC1
viscosity [mPa·s], 101.33 kPa
Conditions | x1 = 0.1003 | x1 = 0.2025 | x1 = 0.3008 | x1 = 0.403 | x1 = 0.5069 | x1 = 0.6012 | x1 = 0.7048 | x1 = 0.7983 | x1 = 0.8839
298.15 K | 0.593 | 0.677 | 0.787 | 0.908 | 1.057 | 1.232 | 1.503 | 1.701 | 1.898
303.15 K | 0.502 | 0.571 | 0.66 | 0.756 | 0.874 | 1.011 | 1.223 | 1.381 | 1.546
308.15 K | 0.475 | 0.539 | 0.618 | 0.702 | 0.808 | 0.93 | 1.091 | 1.242 | 1.385

CC(C)CCO + C1COCCO1
viscosity [mPa·s], 101 kPa
Conditions | x1 = 0.1 | x1 = 0.2067 | x1 = 0.3006 | x1 = 0.4011 | x1 = 0.5011 | x1 = 0.609 | x1 = 0.7009 | x1 = 0.8003 | x1 = 0.908
298.15 K | 1.135 | 1.151 | 1.189 | 1.261 | 1.37 | 1.519 | 1.737 | 2.122 | 2.79
303.15 K | 1.049 | 1.068 | 1.116 | 1.177 | 1.265 | 1.388 | 1.562 | 1.87 | 2.429
308.15 K | 0.9581 | 0.9865 | 1.039 | 1.097 | 1.156 | 1.243 | 1.359 | 1.615 | 2.081
